Results as given in patent US20230014962A1, “Quinoline compound and use thereof” (SKYRUN PHARMA CO., LTD., priority 2019, published 2023).

Experiments:
[1] = biological target: T1, FGFR4 (Homo sapiens, UniProt P22455); assay: Determination of FGFR4 inhibitory activity by fluorescence resonance energy transfer (FRET) method; type: biochemical; details: FGFR4 from purchased kit, read-out: In vitro FGFR4 kinase inhibitory activity IC50
T1 construct: purchased
Source text: 1. Determination of FGFR4 Inhibitory Activity of Target Compound
FGFR4 is obtained by direct purchase of a kit.

[2] = test system: Hep3B cell; assay: Determination of Hep3B cell inhibitory activity (Cell Titer-Glo, 72 h); type: cell-based; details: Hep3B cells, 72 h incubation, Cell Titer-Glo (CTG) method
Source text: 2. Determination of Hep3B Cell Inhibitory Activity of Target Compound

T1 sequence (P22455 22-802): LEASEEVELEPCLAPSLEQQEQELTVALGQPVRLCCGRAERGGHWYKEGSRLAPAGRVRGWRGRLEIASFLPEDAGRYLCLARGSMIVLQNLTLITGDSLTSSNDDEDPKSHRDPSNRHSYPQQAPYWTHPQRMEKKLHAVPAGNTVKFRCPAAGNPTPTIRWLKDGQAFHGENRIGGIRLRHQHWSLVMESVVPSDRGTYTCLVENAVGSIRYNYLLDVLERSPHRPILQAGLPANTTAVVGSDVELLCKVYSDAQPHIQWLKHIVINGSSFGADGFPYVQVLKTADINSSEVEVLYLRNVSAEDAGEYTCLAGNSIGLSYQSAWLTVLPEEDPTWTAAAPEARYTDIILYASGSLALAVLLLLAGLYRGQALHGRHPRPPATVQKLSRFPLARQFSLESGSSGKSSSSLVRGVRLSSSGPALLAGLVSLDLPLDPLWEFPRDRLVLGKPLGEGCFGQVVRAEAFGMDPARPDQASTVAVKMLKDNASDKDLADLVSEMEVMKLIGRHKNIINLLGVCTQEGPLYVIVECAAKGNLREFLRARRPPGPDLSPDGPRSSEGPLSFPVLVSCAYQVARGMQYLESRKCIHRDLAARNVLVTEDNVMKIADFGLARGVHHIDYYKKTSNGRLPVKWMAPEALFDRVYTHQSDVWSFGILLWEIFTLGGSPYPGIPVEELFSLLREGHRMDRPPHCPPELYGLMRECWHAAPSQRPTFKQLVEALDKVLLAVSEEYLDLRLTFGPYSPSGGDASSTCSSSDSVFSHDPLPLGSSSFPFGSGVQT

Row | Compound | IC50 [1] [µM] | IC50 ([2]; Homo sapiens) [µM] | IC50 [2] [µM]
1 | 4-[2,6-dichloro-4-(cyclopropylaminocarbonyDaminobenzeneamino]-6-[(1-acryloyl-1,2,3,6-tetrahydropyridine)-4-yl]-7-methoxyquinoline [Compound I-27] | < 0.005 |  | < 0.5
2 | 4-[3-chloro-4-(cyclopentylaminocarbonyl)aminophenoxy]-6-[(1-acryloyl-1,2,3,6-tetrahydropyridine)-4-yl]1-7-methoxyquinoline [Compound I-9] | < 0.005 |  | < 0.1
3 | 4-[3-chloro-4-(cyclopropylaminocarbonyl)aminophenoxy]-6-[(1-acryloyl-1,2,3,6-tetrahydropyridine)-4-yl]-7-ethylquinoline [Compound I-13] | < 0.002 |  | < 0.05
4 | 4-[3-chloro-4-(cyclopropylaminocarbonyl)aminophenoxy]-6-[(1-acryloyl-1,2,3,6-tetrahydropyridine)-4-yl]-7-methoxyquinoline [Compound I-1] | < 0.002 |  | < 0.05
5 | 4-[3-chloro-4-(cyclopropylaminocarbonyl)aminophenoxy]-6-[(1-acryloyl-piperidine)-4-yl]-7-methoxyquinoline [Compound I-8] | < 0.002 |  | < 0.05
6 | 4-[3-chloro-4-(cyclopropylaminocarbonyl)aminophenoxy]-6-[(1-chloroyl-1,2,3,6-tetrahydropyridine)-4-yl]-7-methoxyquinoline [Compound I-4] | < 0.005 |  | < 0.1
7 | 4-[3-chloro-4-(cyclopropylaminocarbonyl)aminophenoxy]-6-[(1-diethylphosphorylacetyl-1,2,3,6-tetrahydropyridine)-4-yl]-7-methoxyquinoline [Compound I-2] | < 0.005 |  | < 0.1
8 | 4-[3-chloro-4-cyclohexanecarbonylaminophenoxy]-6-[(1-chloroyl-1,2,3,6-tetrahydropyridine)-4-yl]-7-methoxyquinoline [Compound I-7] | < 0.002 |  | < 0.05
9 | 4-[3-chloro-4-cyclopropanecarboxylaminophenoxy]-6-[(1-chloroyl-1,2,3,6-tetrahydropyridine)-4 -yl]-7-methoxyquinoline [Compound I-5] | < 0.005 |  | < 0.1
10 | C=CC(=O)Nc1cccc(C)c1Nc1ncc2cc(-c3c(Cl)c(OC)cc(OC)c3Cl)ccc2n1 [Blu9931, reference compound] |  | 0.174 | 
11 | C=CC(=O)N1CC=C(c2cc3c(Oc4ccc(NC(=O)NC(C)(C)C)c(Cl)c4)ccnc3cc2OC)CC1 [Compound I-16, 4-[3-chloro-4-(tert-butylaminocarbonyl)aminophenoxy]-6-[(1-acryloyl-1,2,3,6-tetrahydropyridine)-4-yl]-7-methoxyquinoline] | < 0.005 | < 0.05 | 
12 | C=CC(=O)N1CC=C(c2cc3c(Oc4ccc(NC(=O)Nc5ccccc5)c(Cl)c4)ccnc3cc2OC)CC1 [Compound I-17, 4-[3-chloro-4-(phenylaminocarbonyl)aminophenoxy]-6-[(1-acryloyl-1,2,3,6-tetrahydropyridine)-4-yl]-7-methoxyquinoline] | < 0.002 | < 0.05 | 
13 | C=CC(=O)N1CC=C(c2cc3c(Oc4ccc(NC(=O)NC5CC5)cc4F)ccnc3cc2OC)CC1 [Compound I-18, 4-[2-fluoro-4-(cyclopropylaminocarbonyl)aminophenoxy]-6[(1-acryloyl-1,2,3,6-tetrahydropyridine)-4-yl]-7-methoxyquinoline] | < 0.005 |  | < 0.05
14 | C=CC(=O)N1CC=C(c2cc3c(Oc4ccc(NC(=O)NC5CC5)cc4)ccnc3cc2OC)CC1 [Compound I-20, 4-[4-(cyclopropylaminocarbonyl)aminophenoxy]-6-[(1-acryloyl-1,2,3,6-tetrahydropyridine)-4-yl]-7-methoxyquinoline] | < 0.005 | < 0.5 | 
15 | C=CC(=O)N1CC=C(c2cc3c(Sc4ccc(NC(=O)NC5CC5)c(Cl)c4)ccnc3cc2OC)CC1 [Compound I-25, 4-[3-chloro-4-(cyclopropylaminocarbonyl)aminophenylmercapto]-6-[(1-acryloyl-1,2,3,6-tetrahydropyridine)-4-yl]-7-methoxyquinoline] | < 0.005 | < 0.1 | 
16 | C=CC(=O)N1CC=C(c2cc3c(Nc4ccc(NC(=O)NC5CC5)c(Cl)c4)ccnc3cc2OC)CC1 [Compound I-26, 4-[3-chloro-4-(cyclopropylaminocarbonyl)aminophenylamino]-6-[(1-acryloyl-1,2,3,6-tetrahydropyridine)-4-yl]-7-methoxyquinoline] | < 0.005 | < 0.5 | 
17 | COc1cc2nccc(Oc3ccc(NC(=O)NC4CC4)c(Cl)c3)c2cc1C(N)=O [Lenvatinib, reference compound] | 0.043 | < 0.5 | 

More lines, main results first:

Row | IC50 [1] [µM] | IC50 ([2]; Homo sapiens) [µM] | Compound | IC50 [2] [µM]
18 | < 0.005 | < 0.1 | C=CS(=O)(=O)N1CC=C(c2cc3c(Oc4ccc(NC(=O)NC5CC5)c(Cl)c4)ccnc3cc2OC)CC1 [Compound I-3, 4-[3-chloro-4-(cyclopropylaminocarbonyl)aminophenoxyl]-6-[(1-ethylenesulfonyl-1,2,3,6-tetrahydropyridine)-4-yl]-7-methoxyquinoline] | 
19 | < 0.005 | < 0.1 | C=CC(=O)N1CC=C(c2cc3c(Oc4ccc(NC(=O)C5CCCC5)c(Cl)c4)ccnc3cc2OC)CC1 [Compound I-6] | 
20 | < 0.005 | < 0.1 | C=CC(=O)N1CC=C(c2cc3c(Oc4ccc(NC(=O)NC5CC5)c(Cl)c4)ccnc3cc2OCc2ccccc2)CC1 [Compound I-10] | 
21 | < 0.002 | < 0.05 | C=CC(=O)N1CC=C(c2cc3c(Oc4ccc(NC(=O)NC5CC5)c(Cl)c4)ccnc3cc2OC(C)C)CC1 [Compound I-11, 4-[3-chloro-4-(cyclopropylaminocarbonyl)aminophenoxy]-6-[(1-acryloyl-1,2,3,6-tetrahydropyridine)-4-yl]-7-isopropylquinoline] | 
22 | < 0.005 | < 0.1 | C=CC(=O)N1CC=C(c2cc3c(Oc4ccc(NC(=O)NC5CC5)c(Cl)c4)ccnc3cc2OC2CCCC2)CC1 [Compound I-12] | 
23 | < 0.005 | < 0.1 | C=CC(=O)N1CC=C(c2cc3c(Oc4ccc(NC(=O)NC5CC5)c(Cl)c4)ccnc3cc2OCCN2CCOCC2)CC1 [Compound I-14] | 
24 |  | < 0.05 | C=CC(=O)N1CC=C(c2cc3c(Oc4ccc(NC(=O)NC5CCCCC5)c(Cl)c4)ccnc3cc2OC)CC1 [Compound I-15, 4-[3-chloro-4-(cyclohexylaminocarbonyl)aminophenoxy]-6-[(1-acryloyl-1,2,3,6-tetrahydropyridine)-4-yl]-7-methoxyquinoline] | 
25 | < 0.002 | < 0.05 | C=CC(=O)N1CC=C(c2cc3c(Oc4ccc(NC(=O)NC5CC5)c(F)c4)ccnc3cc2OC)CC1 [Compound I-19, 4-[3-fluoro-4-(cyclopropylaminocarbonyl)aminophenoxy]-6-[(1-acryloyl-1,2,3,6-tetrahydropyridine)-4-yl]-7-methoxyquinoline] | 
26 | < 0.005 | < 0.5 | C=CC(=O)N1CCC=C(c2cc3c(Oc4ccc(NC(=O)NC5CC5)c(Cl)c4)ccnc3cc2OC)C1 [Compound I-21, 4-[3-chloro-4-(cyclopropylaminocarbonyl)aminophenoxy]-6-[(1-acryloyl-1,2,5,6-tetrahydropyridine)-3-yl]-7-methoxyquinoline] | 
27 | < 0.005 | < 0.1 | C=CC(=O)N1CC=C(c2cc3c(Oc4ccc(NC(=O)NC5CC5)c(Cl)c4)ccnc3cc2OC)C1 [Compound I-22, 4-[3-chloro-4-(cyclopropylaminocarbonyl)aminophenoxy]-6-[(1-acryloyl-2,5-dihydropyrrole)-3-yl]-7-methoxyquinoline] | 
28 | < 0.005 | < 0.5 | C=CC(=O)N1CCC(c2cc3c(Oc4ccc(NC(=O)NC5CC5)c(Cl)c4)ccnc3cc2OC)C1 (centres unmarked) [Compound I-23, 4-[3-chloro-4-(cyclopropylaminocarbonyl)aminophenoxy]-6-[(1-acryloyl-tetrahydropyrrole)-3-yl]-7-methoxyquinoline] | 
29 | < 0.002 | < 0.05 | C=CC(=O)N1CC=C(c2cc3c(Oc4ccc(C(=O)NC5CC5)c(Cl)c4)ccnc3cc2OC)CC1 [Compound I-24, 4-[3-chloro-4-(cyclopropylamino)carbonylphenoxy]-6-[(1-acryloyl-1,2,3,6-tetrahydropyridine)-4-yl]-7-methoxyquinoline] | 
